Laboratory results taken from patent publication US12552751B2, “Crystal forms A, B, C, D, E, F and G of selumetinib sulfate and preparation methods thereof” (Chunghwa Chemical Synthesis & Biotech Co. Ltd., priority 2023, dated 2026).
One block for each molecule: values may come before it.

Experiments:
[1] = Stability of crystal forms in a constant-humidity and constant-temperature cabinet; assay type: physicochemical; conditions: for Crystal form after exposure, 80° C. and 75% RH, 1 day / Crystal form after exposure, 80° C. and 75% RH, 3 days: powder; for Crystal form stability under 80° C. and 75% RH (text summary of Table 2): time not stated
Procedure: The stability of crystal forms A, B, C, D, E, F and G of selumetinib sulfate was tested by placing the different crystal forms of selumetinib sulfate into a constant-humidity and constant-temperature cabinet, where the powder of each crystal form was exposed to a temperature of 80° C. and a relative humidity (RH) of 75%.

[2] = solid; cited from earlier work
[3] = cited from earlier work

- Crystal form after exposure, 80° C. and 75% RH, 1 day ([1]; listed as F): Remained F
- Crystal form after exposure, 80° C. and 75% RH, 3 days ([1]; listed as F): Remained F
- Crystal form stability under 80° C. and 75% RH (text summary of Table 2) ([1]; listed as F): remained unchanged
SMILES: Cn1cnc2c(F)c(Nc3ccc(Br)cc3Cl)c(C(=O)NOCCO)cc21.O=S(=O)(O)O [Crystal form F, selumetinib sulfate]

- Crystal form after exposure, 80° C. and 75% RH, 1 day ([1]; listed as G): Remained G
- Crystal form after exposure, 80° C. and 75% RH, 3 days ([1]; listed as G): Remained G
- Crystal form stability under 80° C. and 75% RH (text summary of Table 2) ([1]; listed as G): remained unchanged
SMILES: Cn1cnc2c(F)c(Nc3ccc(Br)cc3Cl)c(C(=O)NOCCO)cc21.O=S(=O)(O)O [Crystal form G, selumetinib sulfate]

- Crystal form after exposure, 80° C. and 75% RH, 1 day ([1]; listed as A): A turned into C
- Crystal form after exposure, 80° C. and 75% RH, 3 days ([1]; listed as A): A turned into C
- Crystal form stability under 80° C. and 75% RH (text summary of Table 2) ([1]; listed as crystal form A): turned into crystal form C
SMILES: Cn1cnc2c(F)c(Nc3ccc(Br)cc3Cl)c(C(=O)NOCCO)cc21.O=S(=O)(O)O [Crystal form A, selumetinib sulfate]

SMILES: Cn1cnc2c(F)c(Nc3ccc(Br)cc3Cl)c(C(=O)NOCCO)cc21.O=S(=O)(O)O [Selumetinib sulfate]
- Hygroscopicity [2]: non-hygroscopic
- Solubility in acetonitrile ([3]; acetonitrile): slightly soluble
- Solubility in ethanol ([3]; ethanol): slightly soluble
- Solubility in water ([3]; water): very low solubility

- Crystal form after exposure, 80° C. and 75% RH, 1 day ([1]; listed as D): Remained D
- Crystal form after exposure, 80° C. and 75% RH, 3 days ([1]; listed as D): Remained D
- Crystal form stability under 80° C. and 75% RH (text summary of Table 2) ([1]; listed as D): remained unchanged
SMILES: Cn1cnc2c(F)c(Nc3ccc(Br)cc3Cl)c(C(=O)NOCCO)cc21.O=S(=O)(O)O [Crystal form D, selumetinib sulfate]

- Crystal form after exposure, 80° C. and 75% RH, 1 day ([1]; listed as C): Remained C
- Crystal form after exposure, 80° C. and 75% RH, 3 days ([1]; listed as C): Remained C
- Crystal form stability under 80° C. and 75% RH (text summary of Table 2) ([1]; listed as C): remained unchanged
SMILES: Cn1cnc2c(F)c(Nc3ccc(Br)cc3Cl)c(C(=O)NOCCO)cc21.O=S(=O)(O)O [Crystal form C, selumetinib sulfate]

- Crystal form after exposure, 80° C. and 75% RH, 1 day ([1]; listed as E): Remained E
- Crystal form after exposure, 80° C. and 75% RH, 3 days ([1]; listed as E): Remained E
- Crystal form stability under 80° C. and 75% RH (text summary of Table 2) ([1]; listed as E): remained unchanged
SMILES: Cn1cnc2c(F)c(Nc3ccc(Br)cc3Cl)c(C(=O)NOCCO)cc21.O=S(=O)(O)O [Crystal form E, selumetinib sulfate]

- Crystal form after exposure, 80° C. and 75% RH, 1 day ([1]; listed as B): Remained B
- Crystal form after exposure, 80° C. and 75% RH, 3 days ([1]; listed as B): Remained B
- Crystal form stability under 80° C. and 75% RH (text summary of Table 2) ([1]; listed as B): remained unchanged
SMILES: Cn1cnc2c(F)c(Nc3ccc(Br)cc3Cl)c(C(=O)NOCCO)cc21.O=S(=O)(O)O [Crystal form B, selumetinib sulfate]
